Test results from ChEMBL document CHEMBL4715706, “Discovery of Benzotriazolo[4,3-d][1,4]diazepines as Orally Active Inhibitors of BET Bromodomains” (ACS Med Chem Lett, 2016).
The source made the active and inactive calls. No cut-off for these calls is given here.

What was measured:
[1] = Oral bioavailability in rat at 10 mg/kg; format: ADME, organism-based; details: in vivo
Mus musculus = assay: In vivo inhibition of BET in BALB/c mouse assessed as suppression of LPS-induced IL-6 level in plasma at 15 mg/kg, po pretreated with compound followed by LPS challenge and measured after 2 hrs by ELISA; format: functional, organism-based
[2] = Cmax in rat at 10 mg/kg, po; format: ADME, organism-based; set-up: route oral, dose 10 mg/kg; details: in vivo
[3] = target: T1, Bromodomain-containing protein 9 (Homo sapiens, UniProt Q9H8M2); assay: Inhibition of His-tagged BRD9 (unknown origin) using biotinylated acetylated peptide as substrate measured after 20 mins by AlphaLISA assay
T1 sequence (Q9H8M2 whole entry): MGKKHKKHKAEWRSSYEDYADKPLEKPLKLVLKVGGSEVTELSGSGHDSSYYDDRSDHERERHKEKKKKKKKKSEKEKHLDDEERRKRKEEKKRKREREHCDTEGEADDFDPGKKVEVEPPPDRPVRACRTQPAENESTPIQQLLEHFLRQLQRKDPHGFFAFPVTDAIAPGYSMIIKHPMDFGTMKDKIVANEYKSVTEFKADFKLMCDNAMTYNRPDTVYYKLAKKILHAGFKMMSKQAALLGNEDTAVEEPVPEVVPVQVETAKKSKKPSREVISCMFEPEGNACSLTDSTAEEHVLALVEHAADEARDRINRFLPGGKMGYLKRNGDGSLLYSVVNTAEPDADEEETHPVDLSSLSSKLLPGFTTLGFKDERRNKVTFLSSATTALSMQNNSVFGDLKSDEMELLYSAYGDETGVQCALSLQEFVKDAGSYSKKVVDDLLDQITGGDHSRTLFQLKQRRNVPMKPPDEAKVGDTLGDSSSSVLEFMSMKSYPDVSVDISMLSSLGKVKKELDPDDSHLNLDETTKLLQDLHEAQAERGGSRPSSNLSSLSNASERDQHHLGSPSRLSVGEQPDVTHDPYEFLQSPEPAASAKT

[4] = target: T2, Bromodomain-containing protein 4 (Homo sapiens, UniProt O60885)
Description: Inhibition of His/FLAG-tagged BRD4 BD1 (unknown origin) using histone H4-TetraAcetylated-biotin peptide as substrate incubated for 20 mins by AlphaLISA assay

[5] = target: T2, Bromodomain-containing protein 4; assay: Inhibition of BRD4 BD2 (unknown origin) using biotinylated JQ1 analog as substrate measured after 20 mins by AlphaLISA assay
[6] = target: Bromodomain-containing protein 3 (Homo sapiens, UniProt Q15059); assay: Inhibition of BRD3 BD2 (unknown origin) using biotinylated JQ1 analog as substrate measured after 20 mins by AlphaLISA assay
[7] = target: Bromodomain-containing protein 2 (Homo sapiens, UniProt P25440); assay: Inhibition of BRD2 BD1 (unknown origin) using biotinylated JQ1 analog as substrate measured after 20 mins by AlphaLISA assay
[8] = Clearance in rat at 1 mg/kg, iv relative to liver blood flow; format: ADME, organism-based; details: in vivo
[9] = AUClast in rat at 10 mg/kg, po; format: ADME, organism-based; set-up: time 0 - last, route oral, dose 10 mg/kg; details: in vivo
[10] = Half life in rat at 10 mg/kg, po; format: ADME, organism-based; details: in vivo
Peregrin = target: T3, Peregrin (Homo sapiens, UniProt P55201); assay: Inhibition of BRPF1 (unknown origin) measured after 70 mins by TR-FRET assay
T3 sequence (P55201 whole entry): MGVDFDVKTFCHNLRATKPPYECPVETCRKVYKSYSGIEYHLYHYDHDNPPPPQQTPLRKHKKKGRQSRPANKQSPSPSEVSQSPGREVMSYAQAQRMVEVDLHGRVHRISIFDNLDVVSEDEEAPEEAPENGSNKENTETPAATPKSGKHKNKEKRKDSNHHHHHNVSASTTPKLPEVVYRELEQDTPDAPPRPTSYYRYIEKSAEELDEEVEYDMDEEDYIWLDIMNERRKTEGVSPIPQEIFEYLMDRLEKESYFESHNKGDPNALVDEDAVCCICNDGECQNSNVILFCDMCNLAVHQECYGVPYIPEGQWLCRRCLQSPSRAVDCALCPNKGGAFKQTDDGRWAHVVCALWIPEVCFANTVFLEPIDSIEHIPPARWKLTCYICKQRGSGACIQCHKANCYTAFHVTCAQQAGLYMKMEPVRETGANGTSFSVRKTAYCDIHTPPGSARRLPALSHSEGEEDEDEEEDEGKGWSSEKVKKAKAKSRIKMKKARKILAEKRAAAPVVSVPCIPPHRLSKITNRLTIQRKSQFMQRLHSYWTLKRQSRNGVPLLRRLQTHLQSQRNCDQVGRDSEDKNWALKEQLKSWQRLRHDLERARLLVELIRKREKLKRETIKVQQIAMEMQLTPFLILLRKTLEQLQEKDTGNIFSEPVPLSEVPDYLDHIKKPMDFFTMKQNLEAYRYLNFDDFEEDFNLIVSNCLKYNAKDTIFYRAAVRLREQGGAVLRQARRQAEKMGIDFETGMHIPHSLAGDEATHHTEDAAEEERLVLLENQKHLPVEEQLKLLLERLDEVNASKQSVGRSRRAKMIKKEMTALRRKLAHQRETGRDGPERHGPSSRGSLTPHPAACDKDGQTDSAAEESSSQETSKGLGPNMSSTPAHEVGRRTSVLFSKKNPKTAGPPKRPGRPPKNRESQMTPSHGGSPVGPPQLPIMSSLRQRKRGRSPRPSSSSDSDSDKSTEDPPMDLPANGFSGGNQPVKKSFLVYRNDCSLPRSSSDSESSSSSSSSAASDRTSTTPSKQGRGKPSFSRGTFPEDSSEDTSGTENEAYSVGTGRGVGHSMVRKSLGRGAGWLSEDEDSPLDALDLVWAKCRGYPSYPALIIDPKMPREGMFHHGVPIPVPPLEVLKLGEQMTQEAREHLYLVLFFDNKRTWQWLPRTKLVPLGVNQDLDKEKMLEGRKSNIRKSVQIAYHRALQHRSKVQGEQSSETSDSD

[11] = Unbound clearance in rat at 1 mg/kg, iv; format: ADME, organism-based; details: in vivo
[12] = Half life in rat at 1 mg/kg, iv; format: ADME, organism-based; details: in vivo
[13] = target: Nucleosome-remodeling factor subunit BPTF (Homo sapiens, UniProt Q12830); assay: Inhibition of BPTF (unknown origin) measured after 70 mins by TR-FRET assay
[14] = target: Bromodomain testis-specific protein (Homo sapiens, UniProt Q58F21); assay: Inhibition of BRDT BD1 (unknown origin) using biotinylated JQ1 analog as substrate measured after 20 mins by AlphaLISA assay
CREB-binding protein = CREB-binding protein (Homo sapiens, UniProt Q92793); assay: Inhibition of His-tagged CBP (unknown origin) using biotinylated acetylated peptide as substrate measured after 20 mins by AlphaLISA assay
[15] = Protein binding in human plasma; format: ADME, cell-free; details: read-out: PPB (converted)
[16] = Intrinsic clearance in human liver microsomes
[17] = Volume of distribution at steady state in rat at 1 mg/kg, iv; format: ADME, organism-based; details: in vivo, read-out: Vdss

Bromodomain-containing protein 2, sequence (P25440 whole entry): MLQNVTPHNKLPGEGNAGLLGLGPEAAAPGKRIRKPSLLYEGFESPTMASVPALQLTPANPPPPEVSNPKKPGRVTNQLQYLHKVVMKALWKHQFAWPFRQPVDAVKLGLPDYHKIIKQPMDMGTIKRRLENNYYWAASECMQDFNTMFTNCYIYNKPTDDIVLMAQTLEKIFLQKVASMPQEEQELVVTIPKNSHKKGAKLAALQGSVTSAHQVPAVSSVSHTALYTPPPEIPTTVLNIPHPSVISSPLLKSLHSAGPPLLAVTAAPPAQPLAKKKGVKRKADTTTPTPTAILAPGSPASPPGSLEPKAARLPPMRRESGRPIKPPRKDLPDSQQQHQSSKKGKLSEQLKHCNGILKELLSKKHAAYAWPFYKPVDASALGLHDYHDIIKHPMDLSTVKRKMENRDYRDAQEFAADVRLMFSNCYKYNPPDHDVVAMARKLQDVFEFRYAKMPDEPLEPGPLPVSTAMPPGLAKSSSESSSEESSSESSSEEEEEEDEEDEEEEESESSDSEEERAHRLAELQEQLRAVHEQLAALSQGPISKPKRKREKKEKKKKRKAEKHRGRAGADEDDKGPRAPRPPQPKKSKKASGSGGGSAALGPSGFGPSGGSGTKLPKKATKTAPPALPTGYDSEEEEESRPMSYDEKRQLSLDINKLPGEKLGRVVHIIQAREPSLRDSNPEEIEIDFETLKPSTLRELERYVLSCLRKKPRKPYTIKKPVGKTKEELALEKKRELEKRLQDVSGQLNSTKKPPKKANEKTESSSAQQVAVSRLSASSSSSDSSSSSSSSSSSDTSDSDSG
Bromodomain-containing protein 3, sequence (Q15059 whole entry): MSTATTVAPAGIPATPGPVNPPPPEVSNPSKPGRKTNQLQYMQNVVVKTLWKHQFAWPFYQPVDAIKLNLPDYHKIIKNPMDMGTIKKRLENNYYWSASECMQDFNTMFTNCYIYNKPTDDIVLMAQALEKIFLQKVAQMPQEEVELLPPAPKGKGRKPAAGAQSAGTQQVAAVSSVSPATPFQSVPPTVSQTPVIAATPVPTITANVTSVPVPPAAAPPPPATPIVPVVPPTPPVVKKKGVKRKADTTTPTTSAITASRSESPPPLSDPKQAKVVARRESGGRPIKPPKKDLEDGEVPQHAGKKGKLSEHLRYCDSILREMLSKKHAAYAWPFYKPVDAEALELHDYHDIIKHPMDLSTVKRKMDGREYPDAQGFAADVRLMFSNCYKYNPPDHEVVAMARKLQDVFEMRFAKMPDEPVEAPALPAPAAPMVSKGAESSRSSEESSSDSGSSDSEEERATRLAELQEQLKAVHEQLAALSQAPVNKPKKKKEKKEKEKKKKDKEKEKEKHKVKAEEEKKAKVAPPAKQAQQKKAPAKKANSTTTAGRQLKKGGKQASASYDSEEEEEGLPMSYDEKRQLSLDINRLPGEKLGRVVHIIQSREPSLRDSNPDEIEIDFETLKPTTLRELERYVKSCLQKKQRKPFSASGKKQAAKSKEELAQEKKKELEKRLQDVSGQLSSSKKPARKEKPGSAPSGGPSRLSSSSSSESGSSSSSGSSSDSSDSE
CREB-binding protein, sequence (Q92793 whole entry): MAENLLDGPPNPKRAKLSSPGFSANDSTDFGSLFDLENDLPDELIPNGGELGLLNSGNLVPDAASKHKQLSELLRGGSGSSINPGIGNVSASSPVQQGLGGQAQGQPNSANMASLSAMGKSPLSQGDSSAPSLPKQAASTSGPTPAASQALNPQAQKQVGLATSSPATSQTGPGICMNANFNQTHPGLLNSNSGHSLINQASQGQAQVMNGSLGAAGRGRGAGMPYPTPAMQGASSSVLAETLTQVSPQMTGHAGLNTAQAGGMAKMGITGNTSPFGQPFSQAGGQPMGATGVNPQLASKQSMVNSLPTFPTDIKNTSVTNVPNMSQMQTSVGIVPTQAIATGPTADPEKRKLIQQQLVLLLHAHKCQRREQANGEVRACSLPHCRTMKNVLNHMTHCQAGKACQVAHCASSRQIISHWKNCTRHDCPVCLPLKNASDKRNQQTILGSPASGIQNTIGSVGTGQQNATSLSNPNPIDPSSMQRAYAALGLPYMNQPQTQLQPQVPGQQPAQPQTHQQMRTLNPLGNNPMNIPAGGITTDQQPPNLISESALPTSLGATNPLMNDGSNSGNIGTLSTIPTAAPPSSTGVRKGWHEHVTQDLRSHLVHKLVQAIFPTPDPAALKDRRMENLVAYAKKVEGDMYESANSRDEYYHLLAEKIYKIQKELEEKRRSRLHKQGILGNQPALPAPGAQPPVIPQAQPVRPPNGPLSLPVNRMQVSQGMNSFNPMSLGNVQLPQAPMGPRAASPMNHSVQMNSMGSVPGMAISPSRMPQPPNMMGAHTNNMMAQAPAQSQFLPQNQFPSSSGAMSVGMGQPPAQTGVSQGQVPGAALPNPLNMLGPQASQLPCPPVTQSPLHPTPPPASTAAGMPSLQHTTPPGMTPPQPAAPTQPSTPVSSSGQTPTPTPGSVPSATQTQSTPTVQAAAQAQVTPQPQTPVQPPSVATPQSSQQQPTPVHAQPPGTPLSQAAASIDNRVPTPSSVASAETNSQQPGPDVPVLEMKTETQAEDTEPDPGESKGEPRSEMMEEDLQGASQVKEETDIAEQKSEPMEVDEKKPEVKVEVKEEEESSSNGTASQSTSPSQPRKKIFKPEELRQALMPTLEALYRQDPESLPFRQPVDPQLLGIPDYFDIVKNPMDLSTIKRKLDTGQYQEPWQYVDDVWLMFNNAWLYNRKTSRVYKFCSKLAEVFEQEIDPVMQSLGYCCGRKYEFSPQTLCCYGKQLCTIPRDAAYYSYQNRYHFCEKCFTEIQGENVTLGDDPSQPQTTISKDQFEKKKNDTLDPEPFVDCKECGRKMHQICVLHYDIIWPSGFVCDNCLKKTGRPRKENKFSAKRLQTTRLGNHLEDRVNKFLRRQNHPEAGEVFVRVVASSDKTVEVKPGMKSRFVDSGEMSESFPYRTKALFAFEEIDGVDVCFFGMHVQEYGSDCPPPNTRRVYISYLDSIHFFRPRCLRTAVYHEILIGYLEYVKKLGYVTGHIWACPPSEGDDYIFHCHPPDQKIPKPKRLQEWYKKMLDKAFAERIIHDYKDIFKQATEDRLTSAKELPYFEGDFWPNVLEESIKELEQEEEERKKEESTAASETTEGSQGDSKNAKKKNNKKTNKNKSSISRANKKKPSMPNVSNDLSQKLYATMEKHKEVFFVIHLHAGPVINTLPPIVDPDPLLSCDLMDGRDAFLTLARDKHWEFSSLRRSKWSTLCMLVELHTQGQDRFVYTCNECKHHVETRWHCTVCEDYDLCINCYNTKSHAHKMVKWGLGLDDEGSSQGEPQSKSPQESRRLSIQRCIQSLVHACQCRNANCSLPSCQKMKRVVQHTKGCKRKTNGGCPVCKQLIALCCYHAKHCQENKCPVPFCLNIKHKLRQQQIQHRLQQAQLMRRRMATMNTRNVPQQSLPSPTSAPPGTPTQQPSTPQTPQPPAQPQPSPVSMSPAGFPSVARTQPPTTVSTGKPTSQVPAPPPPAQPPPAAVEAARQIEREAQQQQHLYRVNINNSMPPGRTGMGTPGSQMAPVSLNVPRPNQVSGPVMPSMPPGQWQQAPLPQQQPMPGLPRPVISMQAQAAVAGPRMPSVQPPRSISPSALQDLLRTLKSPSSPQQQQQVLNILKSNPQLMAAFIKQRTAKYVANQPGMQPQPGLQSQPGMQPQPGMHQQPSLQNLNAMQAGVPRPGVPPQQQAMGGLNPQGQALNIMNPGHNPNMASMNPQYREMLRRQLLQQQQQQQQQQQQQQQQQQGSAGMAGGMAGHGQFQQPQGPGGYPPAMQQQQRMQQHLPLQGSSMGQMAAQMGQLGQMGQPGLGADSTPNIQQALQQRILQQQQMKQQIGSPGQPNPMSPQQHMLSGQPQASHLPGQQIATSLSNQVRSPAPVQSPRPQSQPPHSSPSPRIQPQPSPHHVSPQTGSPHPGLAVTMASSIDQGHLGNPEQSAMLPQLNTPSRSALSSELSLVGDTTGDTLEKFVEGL

Q: What does the source list for `Cc1nnc2n1-c1ccc(-c3ccc(N)nc3)cc1N(c1ccc(Cl)cc1)C[C@H]2C`?
A: bioavailability [1]: 23%; inhibition (Mus musculus): Active; Cmax [2]: 0.29 µM; IC50 [3]: > 15000 nM; IC50 [4]: 15 nM; IC50 [5]: 3 nM; IC50 [6]: 3 nM; IC50 [7]: 3 nM; CL [8]: 90%; AUC(0-t) [9]: 1400 nM·h; half-life [10]: 1.8 h; IC50 (Peregrin): > 15000 nM; CL free [11]: 95 L/h/kg; half-life [12]: 0.67 h; IC50 [13]: > 15000 nM; IC50 [14]: 3 nM; IC50 (CREB-binding protein): 2200 nM; fraction unbound [15]: 0.02; microsomal CLint [16]: 5.1 µL/min/mg; Vd [17]: 2.2 L/kg
